Like-named read-outs stand apart in the source and are kept apart here.
Tested on: Human Basophils
Test: Histamine Release from Human Basophils (HHB)
Format: cell-based
Settings: for inhibition at 33 µM: Homo sapiens, 33 μM cpd.
Source text: Histamine Release from Human Basophils (HHB) Procedure for Quantitating Active Histamine Release, and its Inhibition by Drugs, from Basophils of Human Blood Using an Automated Fluorometric Histamine Assay
Mediator (histamine) release from human blood basophils is an assay which provides a model for evaluating potential antiallergy (mediator release inhibitors) compounds.
Blood from allergic donors is obtained from volunteers through the Community Research Clinic. The leukocytes are removed after Hespan® sedimentation, washed and concentrated using calcium and magnesium free Hepes buffered saline and resuspended in Hepes Hepes buffered saline with 1 mM calcium and magnesium added back. The cells are incubated briefly at room temperature with either buffer alone (for measuring spontaneous release and challenge agent stimulated release) 6% perchloric acid (for measuring total available histamine in the cells) or drug at various concentrations. The cells are then either treated with buffer alone (to measure control spontaneous and drug effect on spontaneous release) or appropriate challenge agent (e.g., anti-IgE, antigen) mixed and incubated for 45 minutes at 37° C. in a shaking water bath. The reaction is stopped by centrifugation and the supernate is poured into autoanalyzer sample cups and samples assayed for assayed for histamine content using an automated fluorometric assay. By comparing the histamine release of drug-treated cells and the challenge agent controls, drug inhibition of mediator (histamine) release can be evaluated.
Histamine release is induced by (1) an aqueous antigen extract (short rageweed or house dust), or (2) anti-IgE antisera. Whole human blood is obtained from volunteers through the Community Research Clinic (CRC-92). Volunteers are chosen on the basis of adequate histamine release induced by antigen, or antiIgE antisera challenge. Leukocytes are incubated in vitro with the challenge agents at several concentrations. Dose-response curves for each volunteer, using each challenge agent, are generated. Test compounds are evaluated for inhibition of a near maximal response to one or more challenge agents. By including appropriate controls, it is possble to measure the effect of the test compound, at various concentrations, in several ways: (1) the effect of the compound on histamine release for each challenge agent; (2) the effect of the test compound on spontaneous release of histamine in the absence of the challenge agent (buffer alone); and (3) the effect of the test compound on the histamine assay.
Histamine is assayed using an automated continuous flow system which quantitates samples of 0.4 ml or more in volume, and concentrations of approximately 0.5 ng/ml or more. The rate of analysis is 30 samples/hour.
Methods of preparing leukocytes for this assay are described by Theuson, et al, J. of Immunology, Vol. 123, p. 426 (1979).
Samples are run in triplicate, using either 1.5 ml polypropylene capped reaction tubes, or 5.0 ml plastic uncapped tubes. Test compounds and challenge agents are prepared in HACM buffer, as described above. Fixed volume pipettes are used.
Test compound or vehicle control is added to three reaction tubes at 1.5×the final desired concentration (i.e., 400 μl of test compound per 600 μl total reaction volume). One hundred μl of cells is added to each tube and the mixture is incubated for eight minutes at room temperature, and two minutes at 37° C. before antigen or other stimulus challenge. One hundred μl of the challenge agent at 6× the final concentration is then added, and the final mixture is incubated at 37° C. for 45 minutes in a shaking water bath. This ensures that the cell preparation is constantly in suspension. The reaction is stopped by centrifugation at 2000 RPM for three minutes at 4° C. The supernate (.perspectiveto.500 μl) is poured into 2.0 ml autoanalyzer beakers and assayed for histamine by the fluorometric method. […]

[1] = Tripeptide challenge, read-out: HHB (Tripeptide), percent inhibition of histamine release
[2] = antigen challenge, read-out: HHB (antigen), percent inhibition of histamine release

Compound: O=C(O)c1ccccc1-c1ccccc1C(=O)Nc1ccc(CCCc2ccc(Cl)c(Cl)c2)cc1 [Example 1, [1,1'-Biphenyl]-2-carboxylic acid, 2'-[[[4-[3-(3,4-dichlorophenyl)propyl]phenyl]amino]carbonyl]-]
- inhibition at 33 µM [1]: 72%
- inhibition at 33 µM [2]: 72%

Compound: O=C(O)c1ccccc1-c1ccccc1C(=O)Nc1ccc(OCCCc2ccccc2)cc1 [Example 2]
- inhibition at 33 µM [1]: 96%
- inhibition at 33 µM [2]: 12%

Compound: O=C(O)c1ccccc1-c1ccccc1C(=O)Nc1ccc(CCc2ccc(Cl)c(Cl)c2)cc1 [Example 3, [1,1'-Biphenyl]-2-carboxylic acid, 2'-[[[4-[2-(3,4-dichlorophenyl)ethyl]phenyl]amino]carbonyl]-]
- inhibition at 33 µM [1]: 93%
- inhibition at 33 µM [2]: 94%

Compound: O=C(O)c1ccccc1-c1ccccc1C(=O)Nc1cccc(CCc2ccc(Cl)c(Cl)c2)c1 [Example 4, [1,1'-Biphenyl]-2-carboxylic acid, 2'-[[[3-[2-(3,4-dichlorophenyl)ethyl]phenyl]amino]carbonyl]-]
- inhibition at 33 µM [1]: 97%
- inhibition at 33 µM [2]: 101%

Compound: CN(C(=O)c1ccccc1-c1ccccc1C(=O)O)c1ccc(CCc2ccc(Cl)c(Cl)c2)cc1 [Example 5, [1,1'-Biphenyl]-2-carboxylic acid, 2'-[[[4-[2-(3,4-dichlorophenyl)ethyl]phenyl]methylamino]carbonyl]-]
- inhibition at 33 µM [1]: 83%
- inhibition at 33 µM [2]: 72%

Compound: COc1ccc(CCc2ccc(NC(=O)c3ccccc3-c3ccccc3C(=O)O)cc2)cc1OC [Example 7, [1,1'-Biphenyl]-2-carboxylic acid, 2'-[[[4-[2-(3,4-dimethoxyphenyl)ethyl]phenyl]amino]carbonyl]-]
- inhibition at 33 µM [1]: 93%
- inhibition at 33 µM [2]: -5%

Compound: CN(C(=O)c1ccccc1-c1ccccc1C(=O)O)c1ccc(CCc2ccc(Cl)cc2)cc1 [Example 8]
- inhibition at 33 µM [1]: 111%
- inhibition at 33 µM [2]: 67%

Compound: O=C(O)c1ccccc1-c1ccccc1C(=O)Nc1ccc(Cc2ccc(Cl)c(Cl)c2)cc1 [Example 9]
- inhibition at 33 µM [1]: 100%
- inhibition at 33 µM [2]: 87%

Compound: O=C(O)c1ccccc1-c1ccccc1C(=O)Nc1ccc(CCCCc2ccc(Cl)c(Cl)c2)cc1 [Example 15, [1,1'-Biphenyl]-2-carboxylic acid, 2'-[[[4-[4-(3,4-dichlorophenyl)butyl]phenyl]amino]carbonyl]-]
- HHB (antigen), percent inhibition of histamine release @ 10 (@ 10, antigen challenge): 39
- inhibition at 33 µM [1]: -17%

Compound: O=C(O)c1ccccc1-c1ccccc1C(=O)Nc1ccc(CCCc2ccccc2)cc1 [Example 16, [1,1'-Biphenyl]-2-carboxylic acid, 2'-[[[4-(3-phenylpropyl]phenyl]amino]carbonyl]-]
- inhibition at 33 µM [1]: 84%

Compound: O=C(O)c1ccccc1-c1ccccc1C(=O)Nc1ccc(CCCCc2ccccc2)cc1 [Example 19, [1,1'-Biphenyl]-2-carboxylic acid, 2'-[[[4-(4-phenylbutyl)phenyl]amino]carbonyl]-]
- inhibition at 33 µM [1]: 90%
- inhibition at 33 µM [2]: 59%

Compound: O=C(O)c1ccccc1-c1ccccc1C(=O)Nc1ccc(CCCCCc2ccccc2)cc1 [Example 21, [1,1'-Biphenyl]-2-carboxylic acid, 2'-[[[4-(5-phenylpentyl)phenyl]amino]carbonyl]-]
- inhibition at 33 µM [1]: 93%
- inhibition at 33 µM [2]: 91%

— US4786755A, “Diphenic acid monoamides” (Warner-Lambert Company, priority 1986, dated 1988)
